Test: Electric potential experiment (degree of carbonation, carbon dioxide electrode) as surrogate of bitterness perception
Format: physicochemical
Settings: Sol. Nos. 26-28, acetaminophen as the API, 100 mL deionized water
Description: Formulations comprising the effervescent combination (sodium bicarbonate and citric acid) and molecules/compositions that impart a bitter taste (such as APIs or compositions comprising APIs) can be prepared according to Tables 1-5 below. Exemplary formulations according to the disclosure were made according to the following general procedure. 100 mL of deionized water from MILLI-Q® Q-POD® water purifier (having about 1.9 ppb total organic content) was weighed out in an appropriately sized glass beaker. The ingredients mentioned in Tables 1-5 below were weighed out and added to the glass beaker containing deionized water, and then the mixture was stirred for 15 minutes until the blend is homogenous. Each ingredient was sieved through a mesh 18 strainer ([…] strainer size means particles won't be greater than 0.0394 inches (1000 microns or 1 mm) in diameter) to remove clumps before weighing. The METTLER TOLEDO® XP6035S was used to measure ingredient weight, but any suitable weighing balance may be used.
Various combinations of bitter tasting molecules/compositions (e.g., APIs or compositions comprising APIs) along with the effervescent combination were prepared as solutions (see Sol. Nos. 1-36 in FIG. 1) per the general procedure described in Example 1. For the electric potential experiment, after the solutions were stirred, a carbon dioxide electrode (which measures the degree of carbonation) was dipped in the glass beaker to assess degree of carbonation (unit is electric potential in mV). The THERMO SCIENTIFIC™ ORION™ VSTAR PRO™ 9502BNWP carbon dioxide electrode was used to measure electrical potential (mV). The METTLER TOLEDO SEVENCOMPACT™ PH meter PD-470 was used to measure the pH. […] The carbon dioxide electrode was rinsed with deionized water and cleaned with a lint free tissue in between samples.

In the case of `CC(=O)Nc1ccc(O)cc1` [acetaminophen], the average electric potential (including 0.300 g of the effervescent combination (low end)) is reported as 22.24 mV, the average electric potential (including 0.400 g of the effervescent combination) is reported as 30.4 mV and the average electric potential (including 0.500 g (high end) of the effervescent combination) is reported as 35.67 mV.

Reference: patent US20250281391A1, “EFFERVESCENT COMPOSITION AND METHOD FOR DETERMINING BITTERNESS PERCEPTION” (BAYER HEALTHCARE LLC, priority 2024, published 2025)
